Experimental data: PMC9963438, “Emerging Effects of Resveratrol Derivatives in Cells Involved in Oral Wound Healing: A Preliminary Study” (International Journal of Molecular Sciences, 2023)

How the values were obtained:
[1] = test system: HOBs; assay: LDH release assay on HOBs; type: cell-based, human; conditions: 24 h
Protocol: Lactate Dehydrogenase (LDH) activity in HUVECs, HGFs, and HOBs was measured with a cytotoxicity detection kit LDH (Roche, Basilea, Swiss). Firstly, 5000 cells/well (HUVECs, HGFs and HOBs) were seeded in 96-well plates and treated with 1d and 1h (5, 10, 20 µM). After 24 h, the assay was performed according to manufacturer instructions. LDH release was calculated as a percentage with respect to the control (CTRL).

[2] = test system: HGFs; assay: MTT viability/proliferation on HGFs; type: cell-based, human; conditions: vs CTRL and RSV 10 µM
Protocol: For the initial screening, HGFs were seeded at a density of 8000 cells/well into a 96-well culture plate and cultured for 24 h. […] The DMSO final concentration was established at 0.1% in all tested samples.
(§1) To measure HUVECs, HGFs, and HOBs metabolic activity as an indicator of cell viability and proliferation, an MTT assay (Sigma Aldrich, Milan, Italy) was performed. In brief, 8000 cells/well (HUVECs, HGFs and HOBs) were seeded in 96-well plates and after 24 h cells were treated with increasing concentrations of 1d and 1h for 48 h and 72 h. Then, the medium was replaced by a fresh one supplemented with […] MTT and probed for 4 h at 37 °C. The medium containing MTT was discarded and replaced by an equal volume of DMSO to dissolve formazan crystals. The absorbance of the solution was read at a 540 nm wavelength by a microplate reader (Multiskan GO, Thermo Scientific, MA, USA). Values obtained without cells were considered as background. Viability and proliferation were normalized to control cells treated with DMSO 0.1%.

[3] = test system: HOBs; assay: MTT viability/proliferation on HOBs; type: cell-based, human; conditions: vs CTRL and RSV 10 µM
Protocol: as §1

[4] = test system: HUVECs; assay: Toluidine blue staining, morphology and confluence of HUVECs; type: cell-based, human; conditions: 5 µM; for HUVECs confluence: 48 h, compared to CTRL and RSV; for HUVECs growth / confluence: 72 h, compared to controls
Protocol: (§2) The influence of 1d and 1h was evaluated on cells density and morphology by toluidine-blue staining. A total of 2 × 10^4 cells/well were cultured in 24-well plates and were incubated at 37 °C and 5% CO2 with tested compounds at 5 µM. After 48 and 72 h, adherent cells were fixed with 70% cold ethanol and stained with 1% toluidine blue and 1% borax (Sigma Aldrich, St. Louis, MO, USA). Cells were then observed by an inverted microscope connected with a camera at 40×, 100×, and 200× magnifications (Leica, Wild Heer-brugg, Wetzlar, Germany).

[5] = test system: HGFs; assay: Toluidine blue staining, morphology and confluence of HGFs; type: cell-based, human; conditions: for HGFs confluence: compared to controls
Protocol: as §2

[6] = test system: HOBs; assay: Alizarin red staining and calcium deposition (CPC) in HOBs; type: cell-based, human; conditions: 5 µM, 14 days
Protocol: To evaluate mineralization qualitatively, Alizarin red staining was performed. 5 × 10^4/well HOBs were seeded and treated with 1d and 1h. After 14 days of culture, HOBs were rinsed three times with PBS and fixed with a glutaraldehyde solution (2.5%) for 2 h. An Alizarin staining solution (Sigma-Aldrich) was then added for 1h at room temperature and the excess dye was removed using deionized water. The presence of calcium deposition was qualitatively evaluated by observing the intensity of the red color. Images were taken by a stereomicroscope connected with a camera at a magnification of 12× (Leica, Wetzlar, Germany). Furthermore, to quantify calcium deposition, Cetylpyridinium Chloride (CPC) was used. Upon a washing with deionized water, cells were treated with 1 mL of 10% CPC solution (Sigma-Aldrich) for 1 h to chelate calcium ions. After incubation, the absorbance was read at 540 nm by a microplate reader (Synergy H1 Hybrid BioTek Instruments) and normalized with the cell number.

[7] = test system: COL1 mRNA in HGFs; assay: RT-qPCR of COL1 in HGFs; type: cell-based, human
Protocol: (§3) Total RNA was isolated using Trifast reagent (EuroClone) according to the manufacturer instructions from 3 × 10^5 cells/well treated with increasing concentrations of 1d and 1h for 48 h and 72 h. Complementary DNA (cDNA) was obtained using GoTaq® 2 Step RT-qPCR Kit (Promega, Madison, WI, USA) in accordance with the manufacturer’s instructions. RT-qPCR was carried out using SYBR Green (Promega) on the Quant Studio 7 Pro Real-Time PCR System (ThermoFisher, Waltham, MA, USA). The results were normalized to glyceraldehyde 3-phoshate dehydrogenase (GAPDH) for HUVECs and HGFs and to β-actin (βACT) for HOBs using the 2^−ΔΔCt method.

[8] = test system: FN1 mRNA in HGFs; assay: RT-qPCR of FN1 in HGFs; type: cell-based, human; conditions: 5, 10, 20 µM, 48 and 72 h, compared to RSV-treated cells and CTRL
Protocol: as §3

[9] = 10 and 20 µM, differences not significant
[10] = 72 h, 1d and 1h 5 µM, RSV 10 µM
[11] = all concentrations (5, 10, 20 µM), 48 and 72 h

LDH release ([1]; 5 µM) | LDH release [1, 9] | melting point [°C] | Structure (SMILES) | HGFs proliferation rate (MTT) ([2]; 5 µM, 48 h) | HGFs proliferation rate (MTT) ([2]; 5 µM, 72 h) | HOBs metabolic activity / proliferation (MTT) ([3]; 5 µM, 48 h) | HOBs metabolic activity / proliferation (MTT) ([3]; 5 µM, 72 h) | HOBs metabolic activity / proliferation (MTT) ([3]; 10 µM, 48 h) | HUVECs confluence [4] | HUVECs growth / confluence [4] | HGFs morphology ([5]; 5 µM, 48 h) | HGFs confluence ([5]; 5 µM, 72 h) | HGFs morphology [5, 10] | matrix mineralization by ARS (qualitative) [6] | COL1 mRNA level [7, 11] | FN1 mRNA level [8] | further results
lowest LDH values | slightly increased the LDH | 182 to 183 | Cc1ccc(S(=O)(=O)Nc2ccc(/C=C/c3ccccc3)cc2)cc1 [1d, 4-Methyl-N-{4-[(E)-2-phenylvinyl]phenyl}benzenesulfonamide] | significant increase in proliferation rate | significantly promoted cell proliferation | enhanced the metabolic activity of osteoblasts | significantly promoted the proliferation of cells | slightly promoted cell growth | reached confluence approximately earlier | growth was more consistent | short and broad and assumed a cuboid to polygonal aspect | nearly confluent | mainly appeared as long spindles | higher mineralization potential | increase in COL1 mRNA level | no significant modifications | HGFs proliferation rate (MTT) ([2]; 10 µM, 48 h): slight increment of cell growth compared to RSV, but not in respect to the CTRL; HGFs proliferation rate (MTT) ([2]; 20 µM, 72 h): proliferative rate was lower; calcium deposition (quantitative measurement with CPC) ([6]; vs control, RSV and 1h): significantly stimulated the calcium deposition; COL1 mRNA level ([7]; 5 µM, 48 h, compared to CTRL and RSV): significantly highest result
lowest LDH values | slightly increased the LDH | 230 to 231 | CCS(=O)(=O)Nc1ccc(/C=C/c2ccccc2)cc1 [1h, N-{4-[(E)-2-Phenylvinyl]phenyl}ethanesulfonamide] | cell proliferation was significantly higher | cell proliferation was significantly higher | enhanced the metabolic activity of osteoblasts | significantly enhanced cell proliferation with respect to the CTRL | slightly promoted cell growth | reached confluence approximately earlier | growth was more consistent | short and broad and assumed a cuboid to polygonal aspect | nearly confluent | mainly appeared as long spindles | stimulated the formation of mineralized nodules | increase in COL1 mRNA level | no significant modifications | HOBs metabolic activity / proliferation (MTT) ([3]; 20 µM, 48 h): decreased in respect to the CTRL and RSV
